pIC50, pKd: −log10 of the molar value. Read-outs that look alike come from different tables or passages of the source.
Assays:
TYK2 JH2 = target: T1, TYK2 JH2 (Homo sapiens, UniProt P29597); assay: TYK2 JH2 binding assay (KINOMEscan KdELECT competitive binding); conditions: TYK2 JH2 domain
T1 construct: purchased DiscoverX (KINOMEscan KdELECT service); host or cells: E. coli BL21-derived (T7 phage display) or HEK-293
Procedure, shortened: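 JH2-domain fragment, expressed as T7 phage tag in BL21-derived E. coli or DNA-tagged from HEK-293, competed with test compound against bead-immobilized biotinylated ligand in binding buffer (0.9% DMSO). 1 h shaking at room temperature; bound kinase eluted with 0.5 μM free ligand and quantified by qPCR. Kd from 11-point 3-fold dilutions.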

[1] = tested on: JAK1/TYK2 pSTAT5 (Tyr694/699) in THP-1 cell line; assay: IFNa-stimulated JAK1/TYK2 pSTAT5 (Tyr694/699) inhibition cellular assay, AlphaLISA; format: cell-based; conditions: THP-1 cells, AlphaLISA (Assay B)
Procedure, shortened: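 THP-1 cells (2e4/well in HBSS) were preincubated with compound (8 points, 6-fold steps from 10000 nM final) for 1 h at 37 °C, then stimulated with IFNa (added at 100 ng/mL) for 30 min. Lysate pSTAT5 was read by AlphaLISA at 615 nm. IC50 came from a 4-parameter fit with bottom 0 and Hill −1.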

[2] = DiscoverX KINOMEscan KdELECT (Assay A), read-out: Biochemical TYK2_DiscoverX_JH2_BND_Kd
[3] = Homo sapiens, IFNa-stimulated, read-out: Cellular_THP1_IFNa-pSTATS_TYK2
[4] = KINOMEscan KdELECT (Assay A), read-out: Biochemical TYK2_JH2_Kd
[5] = Homo sapiens, IFNa-stimulated, read-out: Cellular THP1_IFNa-pSTATS_IC50
[6] = KINOMEscan KdELECT (Assay A), read-out: Biochemical TYK2_DiscoverX_JH2_BND_Kd
[7] = Homo sapiens, IFNa-stimulated pSTAT5 (Tyr694/699), read-out: Cellular_THP1_IFNa-pSTATS_TYK2

T1 sequence (P29597 589-875 limits assumed): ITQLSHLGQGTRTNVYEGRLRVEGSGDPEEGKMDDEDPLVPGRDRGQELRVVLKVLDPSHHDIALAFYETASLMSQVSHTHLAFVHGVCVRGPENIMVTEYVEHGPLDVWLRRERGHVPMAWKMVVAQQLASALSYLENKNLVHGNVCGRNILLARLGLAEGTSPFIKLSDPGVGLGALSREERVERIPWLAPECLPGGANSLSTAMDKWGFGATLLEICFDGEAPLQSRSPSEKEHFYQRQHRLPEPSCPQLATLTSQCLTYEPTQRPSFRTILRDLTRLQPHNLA

Structure (SMILES) | pKd (TYK2 JH2; [2]) | pIC50 [1, 3] | pKd (TYK2 JH2; [6]) | also measured
CNc1ncc(-c2nc3cc(N4CCOCC4)ccc3o2)c2cc(NC(=O)[C@@H]3CC3(F)F)ncc12 [Example 421, (S)-2,2-difluoro-N-(8-(methylamino)-5-(5-morpholinobenzo[d]oxazol-2-yl)-2,7-naphthyridin-3-yl)cyclopropane-1-carboxamide] | ≥ 7.00 | ≥ 6.30 | – | –
CNc1ncc(C(C)C)c2cc(NC(=O)C3CC3)ncc12 [Example 74, N-(5-isopropyl-8-(methylamino)-2,7-naphthyridin-3-yl)cyclopropanecarboxamide] | – | – | – | pKd (TYK2 JH2; [4]): ≥ 7.00; pIC50 [1, 5]: < 6.30
CNc1ncc(C2=CCOC2)c2cc(NC(=O)C3CC3)ncc12 [Example 75, N-(5-(2,5-dihydrofuran-3-yl)-8-(methylamino)-2,7-naphthyridin-3-yl)cyclopropanecarboxamide] | – | – | – | pKd (TYK2 JH2; [4]): ≥ 7.00; pIC50 [1, 5]: < 6.30
[2H]C([2H])([2H])Oc1ccc(C#Cc2cnc(NC)c3cnc(NC(=O)C4CC4)cc23)nc1 [Example 722, N-(5-((5-(methoxy-d3)pyridin-2-yl)ethynyl)-8-(methylamino)-2,7-naphthyridin-3-yl)cyclopropanecarboxamide] | – | ≥ 6.30 | ≥ 7.00 | –
[2H]C([2H])([2H])Nc1ncc(-c2nc3ccccc3o2)c2cc(NC(=O)C([2H])([2H])[2H])ncc12 [Example 432, N-(5-(benzo[d]oxazol-2-yl)-8-((methyl-d3)amino)-2,7-naphthyridin-3-yl)acetamide-2,2,2-d3] | ≥ 7.00 | ≥ 6.30 | – | –
CNc1ncc(-c2nc3cc(N4CC(C)(F)C4)ccc3o2)c2cc(NC(=O)C3CC3)ncc12 [Example 932, N-(5-(5-(3-fluoro-3-methylazetidin-1-yl)benzo[d]oxazol-2-yl)-8-(methylamino)-2,7-naphthyridin-3-yl)cyclopropanecarboxamide] | – | ≥ 6.30 | ≥ 7.00 | –
CNc1ncc(-c2nc3cc(N4CCC5(CC4)COC5)ccc3o2)c2cc(NC(=O)C3CC3)ncc12 [Example 310, N-(5-(5-(2-oxa-7-azaspiro[3.5]nonan-7-yl)benzo[d]oxazol-2-y1)~8-(methylamino)-2,7-naphthyridin-3-yl)cyclopropanecarboxamide] | ≥ 7.00 | ≥ 6.30 | – | –
CNc1ncc(-c2nc3cc(N4CCN(c5ccncc5)CC4)ccc3o2)c2cc(NC(=O)C3CC3)ncc12 [Example 307, N-(8-(methylamino)-5-(5-(4-(pyridin-4-yl)piperazin-1-yl)benzo[d]oxazol-2-yl)-2,7-naphthyridin-3-yl)cyclopropanecarboxamide] | ≥ 7.00 | ≥ 6.30 | – | –
CNc1ncc(C#Cc2ccc(OC)nc2)c2cc(NC(=O)C3CC3)ncc12 [Example 631, N-(5-((6-methoxypyridin-3-yl)ethynyl)-8-(methylamino)-2,7-naphthyridin-3-yl)cyclopropanecarboxamide] | – | ≥ 6.30 | ≥ 7.00 | –
CNc1ncc(-c2nc3cc(OC4CN(C(C)=O)C4)ccc3o2)c2cc(NC(=O)C3CC3)ncc12 [Example 230, N-(5-(5-((1-acetylazetidin-3-yl)oxy)benzo[d]oxazol-2-yl)-8-(methylamino)-2,7-naphthyridin-3-yl)cyclopropanecarboxamide] | ≥ 7.00 | ≥ 6.30 | – | –
CNc1ncc(-c2nc3ccc(N4CCO[C@@H](C)C4)cn3n2)c2cc(NC(=O)C3(F)CC3)ncc12 [Example 540, (S)-1-fluoro-N-(8-(methylamino)-5-(6-(2-methylmorpholino)-[1,2,4]triazolo[1,5-a]pyridin-2-yl)-2,7-naphthyridin-3-yl)cyclopropane-1-carboxamide] | ≥ 7.00 | ≥ 6.30 | – | –
CNc1ncc(-c2nc3cc(N4CCOC(C(C)(C)O)C4)ccc3o2)c2cc(NC(=O)C3CC3)ncc12 (stereo not drawn) [Example 924, N-(5-(5-(2-(2-hydroxypropan-2-yl)morpholino)benzo[d]oxazol-2-yl)-8-(methylamino)-2,7-naphthyridin-3-yl)cyclopropanecarboxamide] | – | ≥ 6.30 | ≥ 7.00 | –
CNc1ncc(-c2nc3cc(OCC4CC4)ccc3o2)c2cc(NC(=O)C3CC3)ncc12 [Example 226, N-(5-(5-(cyclopropylmethoxy)benzo[d]oxazol-2-yl)-8-(methylamino)-2,7-naphthyridin-3-yl)cyclopropanecarboxamide] | ≥ 7.00 | ≥ 6.30 | – | –
CNc1ncc(C#Cc2ccn3c(C)nnc3c2)c2cc(NC(=O)C3CC3)ncc12 [Example 615, N-(5-((3-methyl-[1,2,4]triazolo[4,3-a]pyridin-7-yl)ethynyl)-8-(methylamino)-2,7-naphthyridin-3-yl)cyclopropanecarboxamide] | – | ≥ 6.30 | ≥ 7.00 | –
CNc1ncc(C#Cc2ccc3nc(C)n(C(F)F)c3c2)c2cc(NC(=O)C3CC3)ncc12 [Example 763, N-(5-((1-(difluoromethyl)-2-methyl-1H-benzo[d]imidazol-6-yl)ethynyl)-8-(methylamino)-2,7-naphthyridin-3-yl)cyclopropanecarboxamide] | – | ≥ 6.30 | ≥ 7.00 | –
[2H]C([2H])([2H])Nc1ncc(-c2nc3cc(N4C5CCC4COC5)ccc3o2)c2cc(NC(=O)C3CC3)ncc12 [Example 453, N-(5-(5-(3-oxa-8-azabicyclo[3.2.1]octan-8-yl)benzo[d]oxazol-2-yl)-8-((methyl-d3)amino)-2,7-naphthyridin-3-yl)cyclopropanecarboxamide] | ≥ 7.00 | ≥ 6.30 | – | –
CNc1ncc(C#Cc2ccc3c(c2)C(=O)N(C)C3)c2cc(NC(=O)C3CC3)ncc12 [Example 1017, N-(5-((2-methyl-3-oxoisoindolin-5-yl)ethynyl)-8-(methylamino)-2,7-naphthyridin-3-yl)cyclopropanecarboxamide] | – | – | ≥ 7.00 | pIC50 [1, 7]: ≥ 6.30
CNc1ncc(C#Cc2ccc(OC)cn2)c2cc(NC(=O)C3CC3C(F)F)ncc12 [Example 744, (1R,18)-2-(difluoromethyl)-N-(5-((5-methoxypyridin-2-yl)ethynyl)-8-(methylamino)-2,7-naphthyridin-3-yl)cyclopropane-1-carboxamide] | – | ≥ 6.30 | ≥ 7.00 | –
CNc1ncc(-c2nc3cc(Oc4ccncc4)ccc3o2)c2cc(NC(=O)C3CC3)ncc12 [Example 340, N-(8-(methylamino)-5-(5-(pyridin-4-yloxy)benzo[d]oxazol-2-yl)-2,7-naphthyridin-3-yl)cyclopropanecarboxamide] | ≥ 7.00 | ≥ 6.30 | – | –
CNc1ncc(-c2ccc(OC3CCN(C)CC3)cc2)c2cc(NC(=O)C3CC3)ncc12 [Example 132, N-(8-(methylamino)-5-(4-((1-methylpiperidin-4-yl)oxy)phenyl)-2,7-naphthyridin-3-yl)cyclopropanecarboxamide] | – | – | – | pKd (TYK2 JH2; [4]): ≥ 7.00; pIC50 [1, 5]: < 6.30
CNc1ncc(-c2nc3ccc(OCCS(C)(=O)=O)cn3n2)c2cc(NC(=O)C3CC3)ncc12 [Example 510, N-(8-(methylamino)-5-(6-(2-(methylsulfonyl)ethoxy)-[1,2,4]triazolo[1,5-a]pyridin-2-yl)-2,7-naphthyridin-3-yl)cyclopropanecarboxamide] | ≥ 7.00 | ≥ 6.30 | – | –
CNc1ncc(-c2nc3cc(OC)ccc3o2)c2cc(Nc3cc(C)nc(C)n3)ncc12 [Example 377, N^6-(2,6-dimethylpyrimidin-4-yl)-4-(5-methoxybenzo[d]oxazol-2-yl)-N^1-methyl-2,7-naphthyridine-1,6-diamine] | ≥ 7.00 | ≥ 6.30 | – | –
CNc1ncc(-c2nc3cc(N4CCCC(F)(F)C4)ccc3o2)c2cc(NC(=O)C3CC3)ncc12 [Example 938, N-[5-[5-(3,3-difluoro-1-piperidyl)-1,3-benzoxazol-2-yl]-8-(methylamino)-2,7-naphthyridin-3-yl]cyclopropanecarboxamide] | – | ≥ 6.30 | ≥ 7.00 | –
CNc1ncc(-c2nc3cc(N4CCO[C@@H](C)C4)ccc3o2)c2cc(Nc3ccn(C)n3)ncc12 [Example 417, (S)—N^1-methyl-N^6-(1-methyl-1H-pyrazol-3-yl)-4-(5-(2-methylmorpholino)benzo[d]oxazol-2-yl)-2,7-naphthyridine-1,6-diamine] | ≥ 7.00 | ≥ 6.30 | – | –
CNc1ncc(-c2nc3cc(N4CCOCC4)ccc3o2)c2cc(NC(=O)[C@@H]3C[C@@H]3C(F)F)ncc12 (single isomer, unassigned) [Example 1069] | – | – | ≥ 7.00 | pIC50 [1, 7]: ≥ 6.30
CNC(=O)c1ccc2oc(-c3cnc(NC)c4cnc(NC(=O)C5CC5)cc34)nc2c1 [Example 238, 2-(6-(cyclopropanecarboxamido)-1-(methylamino)-2,7-naphthyridin-4-yl)-N-methylbenzo[d]oxazole-5-carboxamide] | ≥ 7.00 | ≥ 6.30 | – | –
[2H]C([2H])([2H])Nc1ncc(-c2nc3ccccc3o2)c2cc(NC(=O)C3CC3F)ncc12 (racemic) [Example 434, N-(5-(benzo[d]oxazol-2-yl)-8-((methyl-d3)amino)-2,7-naphthyridin-3-yl)-2-fluorocyclopropane-1-carboxamide] | ≥ 7.00 | – | – | pIC50 ([1]; IFNa-stimulated, read-out: Cellular_THP1_IFNa-pSTATS_TYK2): ≥ 6.30
